Results on 1 compound are retold here after patent US12071407B1, “6-(4-hydroxyphenyl)-2-(2-ethoxyethoxy)-4-(4-methoxyphenyl)nicotinonitrile as an antimicrobial compound” (KING FAISAL UNIVERSITY, priority 2023, dated 2024).

One data set relates to Candida albicans. The data set is described as follows: Antimicrobial screening by agar dilution. The note with it: after 10, 20, 40 and 60 minutes at all dilutions 1:100, 1:200, 1:400, 1:800. Format: cell-based. As to the method: (§1) The antibacterial properties of the synthesized compound 6-(4-hydroxyphenyl)-2-(2-ethoxyethoxy)-4-(4-methoxyphenyl)nicotinonitrile were studied by the method of agar dilution. Test solutions of each compound was prepared in concentration of 1% using dimethylformamide as a solvent then they are diluted in physiological solution to obtain the final experimental dilutions 1:100, 1:200, 1:400, 1:800. The effects of these substances are compared with furacillin in a controllable study. The testing microbes used were gram positive bacteria Staphylococcus aureus, gram negative bacteria Pseudomonas aeruginosa and Escherichia coli and Candida albicans fungus. The experiments used for this survey were meat-pentonlu agar (EPA) for cultivation of bacteria and Saburo environment for the fungus. Each experiment used 1 mL of test solution on each plate […]. Two drops of emulsified with microbes feel were added. All experimental samples were taken from the agar after 10, 20, 40, 60 minutes in the environment on the basis of Patrk planted. The bacteria were cultivated at a temperature of 37° C. for 1 day and the mushroom was kept in a thermostat for […] at a temperature of 28° C. Then results were checked.
(In general: In agar dilution the substance is mixed into plates at graded concentrations.)

In a further data set the test system is Escherichia coli. Description: Antimicrobial screening by agar dilution. The following applies: after 10, 20, 40 and 60 minutes at all dilutions 1:100, 1:200, 1:400, 1:800. In kind it is cell-based. As for the experimental part:
as §1

The test system of a further data set is Pseudomonas aeruginosa. The data set is described as follows: Antimicrobial screening by agar dilution. The note with it: after 10, 20, 40 and 60 minutes at all dilutions 1:100, 1:200, 1:400, 1:800. Format: cell-based. As for the experimental part: as §1
Another data set deals with Staphylococcus aureus. The data set is described as follows: Antimicrobial screening by agar dilution. In kind it is cell-based. The following applies: after 10, 20, 40 and 60 minutes at all dilutions 1:100, 1:200, 1:400, 1:800. As for the experimental part:
as §1

Molecules are shown by their SMILES.

In the case of `CCOCCOc1nc(-c2ccc(O)cc2)cc(-c2ccc(OC)cc2)c1C#N` [6-(4-hydroxyphenyl)-2-(2-ethoxyethoxy)-4-(4-methoxyphenyl)nicotinonitrile], the melting point (usually the temperature, or range, at which the solid turns liquid) is 209 to 211 °C. The “inhibition activity (summary in words)” value in the data set with Candida albicans is on record as “highest inhibition activity”. The “inhibition activity (summary in words)” value in the data set with Escherichia coli was “highest inhibition activity”. The “inhibition activity (summary in words)” value in the data set with Pseudomonas aeruginosa is listed as “highest inhibition activity”. Besides, the “inhibition activity (summary in words)” value with Staphylococcus aureus is on record as “highest inhibition activity”.
